One compound from publication PMC5688156, “The natural product carolacton inhibits folate-dependent C1 metabolism by targeting FolD/MTHFD” (Nature Communications, 2017) can be followed below.

The target in one assay is T1, ecFolD Q98H (Escherichia coli, UniProt P24186, Q98H).
T1 construct: His-tag (TEV-cleavable, vector pHis-TEV); made in house; host or cells: E. coli BL21 (DE3)
Briefly: ecFolD Q98H mutant dehydrogenase (DH) enzyme assay. The class given is biochemical, E. coli. As for the experimental part: (§1) (6R,S)-5,10-Methylene-5,6,7,8-tetrahydrofolic acid ((6R,S)-5,10-CH2-THF) calcium salt and (6R,S)-5,10-Methenyl-5,6,7,8-tetrahydrofolic acid ((6R,S)-5,10-CH=THF) chloride were purchased from Schircks Laboratories (Bauma, Switzerland) and used as substrates for FolD dehydrogenase and cyclohydrolase enzyme assays, respectively. Only the R-isomer, which accounts for 50% of (6R,S)-5,10-CH2-THF and (6R,S)-5,10-CH=THF, respectively, is used by the enzyme. (6R,S)-5,10-CH2-THF was dissolved in N2-spargeled basic buffer (50 mM Tris-HCl (pH 8.0), 100 mM β-mercaptoethanol) as described by Varshney et al.[25]. (6R,S)-5,10-CH=THF was dissolved in DMSO as a 100 mM stock solution.
Because FolD is a bifunctional enzyme, dehydrogenase and cyclohydrolase activities were determined for FolD enzyme kinetics, respectively. The dehydrogenase activity of FolD was assayed for its substrate 5,10-CH2-THF and cofactor NADP^+ (in the case of MTHFD2, NAD^+ was used as the cofactor) based on monitoring the formation of 5,10-CH=THF, while the cyclohydrolase activity of FolD was determined for its substrate 5,10-CH=THF by monitoring the hydrolysis of […]. The enzyme kinetics for the dehydrogenase activity of all FolDs except hsMTHFD1_DC were determined at 30 °C in 50 mM Tris-HCl (pH 7.5), 30 mM β-mercaptoethanol. […]

The target in a further assay is T2, hsMTHFD1_DC (Homo sapiens, UniProt P11586).
T2 construct: hsMTHFD1 DC301; His-tag (TEV-cleavable, vector pHis-TEV); made in house; host or cells: E. coli BL21 (DE3)
T2 sequence (P11586 2-291 limits assumed): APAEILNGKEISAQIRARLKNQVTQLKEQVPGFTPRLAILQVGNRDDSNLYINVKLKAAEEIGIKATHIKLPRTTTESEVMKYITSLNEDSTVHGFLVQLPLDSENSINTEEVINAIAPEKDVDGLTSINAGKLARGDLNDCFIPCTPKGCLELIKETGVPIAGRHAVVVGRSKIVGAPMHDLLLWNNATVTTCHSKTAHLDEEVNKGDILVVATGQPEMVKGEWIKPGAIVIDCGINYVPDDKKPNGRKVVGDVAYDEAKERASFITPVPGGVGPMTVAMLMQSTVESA
The assay can be described thus: hsMTHFD1_DC cyclohydrolase (CYH) enzyme assay. It is filed as biochemical. The settings on record: hsMTHFD1 DC301. As to the method: as §1
Because FolD is a bifunctional enzyme, dehydrogenase and cyclohydrolase activities were determined for FolD enzyme kinetics, respectively. The dehydrogenase activity of FolD was assayed for its substrate 5,10-CH2-THF and cofactor NADP^+ (in the case of MTHFD2, NAD^+ was used as the cofactor) based on monitoring the formation of 5,10-CH=THF, while the cyclohydrolase activity of FolD was determined for its substrate 5,10-CH=THF by monitoring the hydrolysis of […]. The enzyme kinetics for the dehydrogenase activity of all FolDs except hsMTHFD1_DC were determined at 30 °C in 50 mM Tris-HCl (pH 7.5), 30 mM β-mercaptoethanol. The hsMTHFD1_DC dehydrogenase activity was measured in 25 mM MOPS (pH 7.3), 30 mM β-mercaptoethanol at 30 °C. […] To monitor the formation of 5,10-CH=THF, the absorbance of the reaction mixture was monitored at 350 nm in micro UV cuvettes (BRAND, Essex, Connecticut, USA). The concentration of 5,10-CH=THF produced in the reaction was determined using an extinction co-efficient of 0.0249 μM^−1 cm^−1. […] The consumption of 5,10-CH=THF was measured by recording the absorbance of the reactions at 355 nm using the TECAN Infinite 200 PRO equipped with a monochromator. […] The inhibition constants (K i) of carolacton on FolD were determined by measuring the apparent K m when adding certain amounts of carolacton to the enzyme reactions. […]

For orientation: IC50 means the concentration that inhibits the measured activity by half. By IC80 is commonly meant the concentration at which the effect reaches the 80% level. As usually defined, the Ki is a measure of affinity in units of concentration, obtained from inhibition or displacement. Regarding `CO[C@H](CC(=O)O)[C@@H](C)C(=O)[C@H](C)/C=C(\C)[C@H]1OC(=O)[C@H](O)[C@H](O)/C=C/[C@H](C)CCC[C@@H]1C` [carolacton], the 50% inhibitory concentration (IC50) was determined as 313 nM against ecFolD Q98H and 19.4 nM at hsMTHFD1_DC (5 nM enzyme, read-out: IC50, carolacton inhibition on CYH activity). Besides, the IC80 was 1930 nM at ecFolD Q98H (read-out: IC80, carolacton inhibition on DH activity) and 67.5 nM at hsMTHFD1_DC (5 nM enzyme, read-out: IC80, carolacton inhibition on CYH activity). Besides, at hsMTHFD1_DC (vs 5,10-CH=THF, read-out: Ki (5,10-CH=THF), carolacton inhibition on CYH activity), the inhibition constant Ki is 20.6 nM.
